SMILES strings stand for the structures.

These results are taken from patent US10287305B2, “Substituted piperidine compound and use thereof” (Takeda Pharmaceutical Company Limited, priority 2016, dated 2019).

The target in the assay is human orexin type 2 receptor (hOX2R) (Homo sapiens (Human), UniProt O43614). The assay is described as follows: Measurement of orexin type 2 receptor agonist activity (Experimental Example 2-1, FLIPR TETRA, intracellular Ca2+). The assay is classed as cell-based. Conditions: CHO dhfr- cells expressing hOX2R, FLIPR TETRA, Fluo-4AM; for Emax: read-out: Emax (%).
Sequence of human orexin type 2 receptor (hOX2R) (O43614 whole entry): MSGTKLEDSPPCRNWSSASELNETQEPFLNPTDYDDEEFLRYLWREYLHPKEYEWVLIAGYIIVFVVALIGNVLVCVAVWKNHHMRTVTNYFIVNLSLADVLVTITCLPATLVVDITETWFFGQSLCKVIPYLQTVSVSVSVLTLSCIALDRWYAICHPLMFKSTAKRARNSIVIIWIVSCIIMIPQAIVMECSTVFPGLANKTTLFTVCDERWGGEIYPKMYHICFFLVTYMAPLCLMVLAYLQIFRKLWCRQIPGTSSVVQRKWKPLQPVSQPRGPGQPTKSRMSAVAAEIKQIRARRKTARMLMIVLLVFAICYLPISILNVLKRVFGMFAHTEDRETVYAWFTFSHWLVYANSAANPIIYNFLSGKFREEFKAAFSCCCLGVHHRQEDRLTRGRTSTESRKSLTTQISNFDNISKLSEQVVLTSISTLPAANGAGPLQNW

As usually defined, the EC50 is the midpoint of the concentration-response curve. One may read the Emax as the size of the effect at its maximum, as opposed to the concentration needed. With `CS(=O)(=O)N[C@H]1CCCN(C(=O)C2CC2)[C@H]1COC1CCN(c2ncccn2)CC1(F)F` (relative stereo) [Example 211, N-(cis-1-(cyclopropylcarbonyl)-2-(((3,3-difluoro-1-(pyrimidin-2-yl)piperidin-4-yl)oxy)methyl)piperidin-3-yl)methanesulfonamide], the concentration giving a half-maximal response (EC50) stood at 1.1 µM and the Emax turned out to be 94%.

Consider `CS(=O)(=O)N[C@H]1CCCN(C(=O)C2CC2)[C@H]1COC1CCN(c2cc(F)ccc2Cl)CC1` (relative stereo) [Example 212, N-(cis-2-(((1-(2-chloro-5-fluorophenyl)piperidin-4-yl)oxy)methyl)-1-(cyclopropylcarbonyl)piperidin-3-yl)methanesulfonamide], for which the response was half-maximal at 2.2 µM (EC50) and the Emax was determined as 89%.

With `CC(=O)N1CCC[C@H](NS(C)(=O)=O)[C@@H]1COC1CCC(F)(c2cccc(F)c2)CC1` (relative stereo) [Example 216, N-(cis-1-acetyl-2-(((4-fluoro-4-(3-fluorophenyl)cyclohexyl)oxy)methyl)piperidin-3-yl)methanesulfonamide], it took 0.21 µM to reach a half-maximal effect (EC50) and the Emax came out at 105%.

With `CCC(=O)N1CCC[C@H](NS(C)(=O)=O)[C@@H]1COC1CCN(c2ccccc2F)CC1` (relative stereo) [Example 219, N-(cis-2-(((1-(2-fluorophenyl)piperidin-4-yl)oxy)methyl)-1-propionylpiperidin-3-yl)methanesulfonamide], the half-maximal effective concentration (EC50) came to 3 µM and the Emax is 91%.

As to `CS(=O)(=O)N[C@H]1CCCN(C(=O)C2CCC2)[C@H]1COC1CCN(c2ccccc2F)CC1` (relative stereo) [Example 223, N-(cis-1-(cyclobutylcarbonyl)-2-(((1-(2-fluorophenyl)piperidin-4-yl)oxy)methyl)piperidin-3-yl)methanesulfonamide], the EC50 was 1.1 µM and the Emax was determined as 110%.

As to `CC(C)C(=O)N1CCC[C@H](NS(C)(=O)=O)[C@@H]1COC1CCN(c2ccccc2F)CC1` (relative stereo) [Example 224, N-(cis-2-(((1-(2-fluorophenyl)piperidin-4-yl)oxy)methyl)-1-isobutyrylpiperidin-3-yl)methanesulfonamide], the EC50 was 1.7 µM and the Emax worked out at 90%.

For the molecule `CS(=O)(=O)N[C@H]1CCCN(C(=O)C2CC2(F)F)[C@H]1COC1CCN(c2ccccc2F)CC1` (relative stereo) [Example 225, N-(cis-1-((2,2-difluorocyclopropyl)carbonyl)-2-(((1-(2-fluorophenyl)piperidin-4-yl)oxy)methyl)piperidin-3-yl)methanesulfonamide], the EC50 came to 1 µM and the Emax is 98%.

Take `CS(=O)(=O)N[C@H]1CCCN(C(=O)CC2CC2)[C@H]1COC1CCN(c2ccccc2F)CC1` (relative stereo) [Example 226, N-(cis-1-(cyclopropylacetyl)-2-(((1-(2-fluorophenyl)piperidin-4-yl)oxy)methyl)piperidin-3-yl)methanesulfonamide]: the EC50 was found to be 2.2 µM and the Emax was 86%.

Take `CCCC(=O)N1CCC[C@H](NS(C)(=O)=O)[C@@H]1COC1CCN(c2ccccc2F)CC1` (relative stereo) [Example 227, N-(cis-1-butyryl-2-(((1-(2-fluorophenyl)piperidin-4-yl)oxy)methyl)piperidin-3-yl)methanesulfonamide]: the EC50 is 2.4 µM and the Emax came out at 102%.

Turning to `CCOC(=O)N1CCC[C@H](NS(C)(=O)=O)[C@@H]1COC1CCN(c2ccccc2F)CC1` (relative stereo) [Example 228, ethyl cis-2-(((1-(2-fluorophenyl)piperidin-4-yl)oxy)methyl)-3-((methylsulfonyl)amino)piperidine-1-carboxylate], the EC50 came out at 2.1 µM and the maximal effect (Emax) was determined as 89%.

Turning to `CS(=O)(=O)N[C@H]1CCCN(C(=O)C2CCCC2)[C@H]1COC1CCN(c2ccccc2F)CC1` (relative stereo) [Example 229, N-(cis-1-(cyclopentylcarbonyl)-2-(((1-(2-fluorophenyl)piperidin-4-yl)oxy)methyl)piperidin-3-yl)methanesulfonamide], the EC50 stood at 1.5 µM and the Emax is 85%.

In the case of `CC(C)CC(=O)N1CCC[C@H](NS(C)(=O)=O)[C@@H]1COC1CCN(c2ccccc2F)CC1` (relative stereo) [Example 230, N-(cis-2-(((1-(2-fluorophenyl)piperidin-4-yl)oxy)methyl)-1-(3-methylbutanoyl)piperidin-3-yl)methanesulfonamide], the EC50 is 2.6 µM and the Emax turned out to be 80%.

With `CS(=O)(=O)N[C@H]1CCCN(C(=O)C2CC(=O)C2)[C@H]1COC1CCN(c2ccccc2F)CC1` (relative stereo) [Example 233, N-(cis-2-(((1-(2-fluorophenyl)piperidin-4-yl)oxy)methyl)-1-((3-oxocyclobutyl)carbonyl)piperidin-3-yl)methanesulfonamide], the midpoint of the response, the EC50, lay at 5 µM and the Emax stood at 83%.

`CS(=O)(=O)N[C@H]1CCCN(C(=O)C2CCCCC2)[C@H]1COC1CCN(c2ccccc2F)CC1` (relative stereo) [Example 236, N-(cis-1-(cyclohexylcarbonyl)-2-(((1-(2-fluorophenyl)piperidin-4-yl)oxy)methyl)piperidin-3-yl)methanesulfonamide]: a half-maximal response (EC50) required 1.8 µM and the Emax came out at 86%.

`CC(C)OC(=O)N1CCC[C@H](NS(C)(=O)=O)[C@@H]1COC1CCN(c2ccccc2F)CC1` (relative stereo) [Example 237, isopropyl cis-2-(((1-(2-fluorophenyl)piperidin-4-yl)oxy)methyl)-3-((methylsulfonyl)amino)piperidine-1-carboxylate]: it took 0.49 µM to reach a half-maximal effect (EC50) and the Emax came out at 90%.

With `CS(=O)(=O)N[C@H]1CCCN(C(=O)C2CCC(F)(F)CC2)[C@H]1COC1CCN(c2ccccc2F)CC1` (relative stereo) [Example 238, N-(cis-1-((4,4-difluorocyclohexyl)carbonyl)-2-(((1-(2-fluorophenyl)piperidin-4-yl)oxy)methyl)piperidin-3-yl)methanesulfonamide], the concentration giving a half-maximal response (EC50) was found to be 2.1 µM and the Emax came out at 91%.

For the molecule `CS(=O)(=O)N[C@H]1CCCN(C(=O)C2CC2)[C@H]1COC1CCN(c2ccccc2)CC1` (relative stereo) [Example 247, N-(cis-1-(cyclopropylcarbonyl)-2-(((1-phenylpiperidin-4-yl)oxy)methyl)piperidin-3-yl)methanesulfonamide], the EC50 worked out at 0.96 µM and the Emax was 102%.

On to `CCNC(=O)N1CCC[C@H](NS(C)(=O)=O)[C@@H]1CO[C@H]1CC[C@@H](c2ccccc2C(F)(F)F)CC1` (relative stereo) [Example 249, cis-N-ethyl-3-((methylsulfonyl)amino)-2-(((cis-4-(2-(trifluoromethyl)phenyl)cyclohexyl)oxy)methyl)piperidine-1-carboxamide], for which the half-maximal effective concentration (EC50) is 0.00061 µM and the maximum response (Emax) was 99%.

On to `CS(=O)(=O)N[C@H]1CCCN(C(=O)C2CC2)[C@H]1COC1CCC(c2ccccn2)CC1` (relative stereo) [Example 251, N-(cis-1-(cyclopropylcarbonyl)-2-(((4-(pyridin-2-yl)cyclohexyl)oxy)methyl)piperidin-3-yl)methanesulfonamide], for which the EC50 amounted to 0.24 µM and the Emax is 98%.

Take `CC(=O)N1CCC[C@H](NS(C)(=O)=O)[C@@H]1CO[C@H]1CC[C@@H](c2cccc(C#N)c2)CC1` (relative stereo) [Example 252, N-(cis-1-acetyl-2-(((cis-4-(3-cyanophenyl)cyclohexyl)oxy)methyl)piperidin-3-yl)methanesulfonamide]: a half-maximal response (EC50) required 2.9 µM and the Emax came out at 93%.

For `CCNC(=O)N1CCC[C@H](NS(C)(=O)=O)[C@@H]1CO[C@H]1CC[C@@H](c2cccc(C#N)c2)CC1` (relative stereo) [Example 254, cis-2-(((cis-4-(3-cyanophenyl)cyclohexyl)oxy)methyl)-N-ethyl-3-((methylsulfonyl)amino)piperidine-1-carboxamide], it took 0.088 µM to reach a half-maximal effect (EC50) and the Emax amounted to 105%.

Regarding `CC(C)OC(=O)N1CCC[C@H](NS(C)(=O)=O)[C@@H]1COC1CCN(c2ncccn2)CC1` (relative stereo) [Example 255, isopropyl cis-3-((methylsulfonyl)amino)-2-(((1-(pyrimidin-2-yl)piperidin-4-yl)oxy)methyl)piperidine-1-carboxylate], a half-maximal response (EC50) required 0.0081 µM and the Emax was found to be 102%.

`CS(=O)(=O)N[C@H]1CCCN[C@H]1CO[C@H]1CC[C@@H](c2ccccc2C#N)CC1` (relative stereo) [Example 262, N-(cis-2-(((cis-4-(2-cyanophenyl)cyclohexyl)oxy)methyl)piperidin-3-yl)methanesulfonamide]: it took 2.5 µM to reach a half-maximal effect (EC50) and the Emax turned out to be 94%.

With `CCNC(=O)N1CCC[C@H](NS(C)(=O)=O)[C@@H]1CO[C@H]1CC[C@@H](c2ccccc2C#N)CC1` (relative stereo) [Example 263, cis-2-(((cis-4-(2-cyanophenyl)cyclohexyl)oxy)methyl)-N-ethyl-3-((methylsulfonyl)amino)piperidine-1-carboxamide], the EC50 stood at 0.057 µM and the Emax stood at 88%.

`COC(=O)N1CCC[C@H](NS(C)(=O)=O)[C@@H]1CO[C@H]1CC[C@@H](c2ccccc2C#N)CC1` (relative stereo) [Example 265, methyl cis-2-(((cis-4-(2-cyanophenyl)cyclohexyl)oxy)methyl)-3-((methylsulfonyl)amino)piperidine-1-carboxylate]: the EC50 was determined as 2.3 µM and the Emax stood at 94%.

Regarding `CCNC(=O)N1CCC[C@H](NS(C)(=O)=O)[C@@H]1CO[C@H]1C[C@@H](Cc2ccccc2)C1` (relative stereo) [Example 266, cis-2-(((cis-3-benzylcyclobutyl)oxy)methyl)-N-ethyl-3-((methylsulfonyl)amino)piperidine-1-carboxamide], the EC50 worked out at 3.7 µM and the Emax came out at 95%.
